Measured values from ChEMBL document CHEMBL4219088, “Novel 4-aminoquinazoline derivatives induce growth inhibition, cell cycle arrest and apoptosis via PI3Kα inhibition” (Bioorg Med Chem, 2018).
Active and inactive are the calls of the source. The calls are words filed in the database; no cut-off is given here.

What was measured:
HCT-116 [1] = assay: Cell cycle arrest in human HCT116 cells assessed as accumulation at S phase at 0.5 uM after 24 hrs by propidium iodide staining based flow cytometry (reference value: 11.36%); format: functional
MCF7 = assay: Antiproliferative activity against human MCF7 cells after 72 hrs by sulforhodamine B assay; format: functional, cell-based; details: MCF7, 72 h
HCT-116 [2] = assay: Cell cycle arrest in human HCT116 cells assessed as accumulation at G2/M phase at 1 uM after 24 hrs by propidium iodide staining based flow cytometry (reference value: 22.24%); format: functional
HCT-116 [3] = assay: Cell cycle arrest in human HCT116 cells assessed as accumulation at G2/M phase at 2 uM after 24 hrs by propidium iodide staining based flow cytometry (reference value: 22.24%); format: functional
[4] = biological target: PI3-kinase p110-alpha/p85-alpha (Homo sapiens, UniProt P42336); assay: Inhibition of recombinant N-terminal His6-tagged full length PI3K p110alpha (unknown origin)/recombinant untagged full length p85alpha (unknown origin) expressed in baculovirus infected Sf21 insect cells by ELISA
HCT-116 [5] = assay: Cell cycle arrest in human HCT116 cells assessed as accumulation at S phase at 1 uM after 24 hrs by propidium iodide staining based flow cytometry (reference value: 11.36%); format: functional
HCT-116 [6] = assay: Induction of apoptosis in human HCT116 cells assessed as viable cells at 1 uM after 48 hrs by Annexin V-FITC/propidium iodide staining based flow cytometry (reference value: 94.06%); format: functional; details: HCT-116, 48 h, read-out: Activity
MRC5 = assay: Antiproliferative activity against human MRC5 cells after 72 hrs by sulforhodamine B assay; format: cell-based; details: MRC5, 72 h
HCT-116 [7] = assay: Induction of apoptosis in human HCT116 cells assessed as early apoptotic cells at 4 uM after 48 hrs by Annexin V-FITC/propidium iodide staining based flow cytometry (reference value: 3.72%); format: functional
[8] = biological target: Phosphatidylinositol 4,5-bisphosphate 3-kinase catalytic subunit alpha isoform (Homo sapiens) (UniProt P42336); assay: Inhibition of PI3Kalpha in human HCT116 cells assessed as reduction in Akt expression level at Ser473 residues at 1 uM after 8 hrs by DAPI staining based confocal microscopy; format: cell-based
MDA-MB-231 = assay: Antiproliferative activity against human MDA-MB-231 cells after 72 hrs by sulforhodamine B assay; format: functional, cell-based; details: MDA-MB-231, 72 h
HCT-116 [9] = assay: Cell cycle arrest in human HCT116 cells assessed as accumulation at subG1 phase at 2 uM after 24 hrs by propidium iodide staining based flow cytometry (reference value: 2.25%); format: functional
HCT-116 [10] = assay: Downregulation of cyclin D1 protein expression in human HCT116 cells at 0.5 to 2 uM after 24 hrs by Western blot analysis; format: functional, cell-based
A549 = assay: Antiproliferative activity against human A549 cells after 72 hrs by sulforhodamine B assay; format: functional, cell-based; details: A549, 72 h
HCT-116 [11] = assay: Induction of apoptosis in human HCT116 cells assessed as increase in cleaved caspase 3 level at 4 uM after 48 hrs by Western blot analysis; format: functional, cell-based
HCT-116 [12] = assay: Induction of apoptosis in human HCT116 cells assessed as early apoptotic cells at 2 uM after 48 hrs by Annexin V-FITC/propidium iodide staining based flow cytometry (reference value: 3.72%); format: functional
[13] = biological target: Phosphatidylinositol 4,5-bisphosphate 3-kinase catalytic subunit alpha isoform (Homo sapiens) (UniProt P42336); assay: Inhibition of PI3Kalpha in human HCT116 cells assessed as reduction in GSK3beta phosphorylation at 0.5 to 2 uM after 24 hrs by Western blot analysis; format: cell-based
[14] = biological target: Phosphatidylinositol 4,5-bisphosphate 3-kinase catalytic subunit alpha isoform (Homo sapiens) (UniProt P42336); assay: Inhibition of PI3Kalpha in human HCT116 cells assessed as reduction in Akt phosphorylation at Ser473 residues at 0.5 to 2 uM after 24 hrs by Western blot analysis; format: cell-based
HCT-116 [15] = assay: Induction of apoptosis in human HCT116 cells assessed as viable cells at 4 uM after 48 hrs by Annexin V-FITC/propidium iodide staining based flow cytometry (reference value: 94.06%); format: functional; details: HCT-116, 48 h, read-out: Activity
HCT-116 [16] = assay: Induction of apoptosis in human HCT116 cells assessed as viable cells at 2 uM after 48 hrs by Annexin V-FITC/propidium iodide staining based flow cytometry (reference value: 94.06%); format: functional; details: HCT-116, 48 h, read-out: Activity
HCT-116 [17] = assay: Induction of apoptosis in human HCT116 cells assessed as increase in Bax level at 1 to 4 uM after 48 hrs by Western blot analysis; format: functional, cell-based
HCT-116 [18] = assay: Induction of apoptosis in human HCT116 cells assessed as early apoptotic cells at 1 uM after 48 hrs by Annexin V-FITC/propidium iodide staining based flow cytometry (reference value: 3.72%); format: functional
SK-HEP1 = assay: Antiproliferative activity against human SKHEP1 cells after 72 hrs by sulforhodamine B assay; format: functional, cell-based; details: SK-HEP1, 72 h
HCT-116 [19] = assay: Induction of apoptosis in human HCT116 cells assessed as necrotic cells at 4 uM after 48 hrs by Annexin V-FITC/propidium iodide staining based flow cytometry (reference value: 0.79%); format: functional
HCT-116 [20] = assay: Cell cycle arrest in human HCT116 cells assessed as accumulation at G2/M phase at 0.5 uM after 24 hrs by propidium iodide staining based flow cytometry (reference value: 22.24%); format: functional
SNU-638 = assay: Antiproliferative activity against human SNU638 cells after 72 hrs by sulforhodamine B assay; format: functional, cell-based; details: SNU-638, 72 h
[21] = biological target: Phosphatidylinositol 4,5-bisphosphate 3-kinase catalytic subunit gamma isoform (Homo sapiens, UniProt P48736); assay: Inhibition of recombinant human N-terminal His6-tagged full length PI3K p120gamma expressed in baculovirus infected Sf21 insect cells by ELISA
HCT-116 [22] = assay: Cell cycle arrest in human HCT116 cells assessed as accumulation at subG1 phase at 1 uM after 24 hrs by propidium iodide staining based flow cytometry (reference value: 2.25%); format: functional
HCT-116 [23] = assay: Induction of apoptosis in human HCT116 cells assessed as late apoptotic cells at 4 uM after 48 hrs by Annexin V-FITC/propidium iodide staining based flow cytometry (reference value: 1.43%); format: functional
[24] = biological target: Phosphatidylinositol 4,5-bisphosphate 3-kinase catalytic subunit alpha isoform (Homo sapiens) (UniProt P42336); assay: Inhibition of PI3Kalpha in human HCT116 cells assessed as reduction in GSK3beta phosphorylation after 24 hrs by Western blot analysis; format: cell-based
HCT-116 [25] = assay: Induction of apoptosis in human HCT116 cells assessed as increase in cleaved caspase 9 level at 4 uM after 48 hrs by Western blot analysis; format: functional, cell-based
HCT-116 [26] = assay: Induction of apoptosis in human HCT116 cells assessed as necrotic cells at 1 uM after 48 hrs by Annexin V-FITC/propidium iodide staining based flow cytometry (reference value: 0.79%); format: functional
HCT-116 [27] = assay: Cell cycle arrest in human HCT116 cells assessed as accumulation at G0/G1 phase at 1 uM after 24 hrs by propidium iodide staining based flow cytometry (reference value: 44.01%); format: functional
HCT-116 [28] = assay: Induction of apoptosis in human HCT116 cells assessed as necrotic cells at 2 uM after 48 hrs by Annexin V-FITC/propidium iodide staining based flow cytometry (reference value: 0.79%); format: functional
HCT-116 [29] = assay: Induction of apoptosis in human HCT116 cells assessed as increase in cytochrome C level at 1 to 4 uM after 48 hrs by Western blot analysis; format: functional, cell-based
HCT-116 [30] = assay: Induction of apoptosis in human HCT116 cells assessed as increase in cleaved PARP level at 4 uM after 48 hrs by Western blot analysis; format: functional, cell-based

Sequence of Phosphatidylinositol 4,5-bisphosphate 3-kinase catalytic subunit alpha isoform (Homo sapiens) (P42336 whole entry, canonical isoform): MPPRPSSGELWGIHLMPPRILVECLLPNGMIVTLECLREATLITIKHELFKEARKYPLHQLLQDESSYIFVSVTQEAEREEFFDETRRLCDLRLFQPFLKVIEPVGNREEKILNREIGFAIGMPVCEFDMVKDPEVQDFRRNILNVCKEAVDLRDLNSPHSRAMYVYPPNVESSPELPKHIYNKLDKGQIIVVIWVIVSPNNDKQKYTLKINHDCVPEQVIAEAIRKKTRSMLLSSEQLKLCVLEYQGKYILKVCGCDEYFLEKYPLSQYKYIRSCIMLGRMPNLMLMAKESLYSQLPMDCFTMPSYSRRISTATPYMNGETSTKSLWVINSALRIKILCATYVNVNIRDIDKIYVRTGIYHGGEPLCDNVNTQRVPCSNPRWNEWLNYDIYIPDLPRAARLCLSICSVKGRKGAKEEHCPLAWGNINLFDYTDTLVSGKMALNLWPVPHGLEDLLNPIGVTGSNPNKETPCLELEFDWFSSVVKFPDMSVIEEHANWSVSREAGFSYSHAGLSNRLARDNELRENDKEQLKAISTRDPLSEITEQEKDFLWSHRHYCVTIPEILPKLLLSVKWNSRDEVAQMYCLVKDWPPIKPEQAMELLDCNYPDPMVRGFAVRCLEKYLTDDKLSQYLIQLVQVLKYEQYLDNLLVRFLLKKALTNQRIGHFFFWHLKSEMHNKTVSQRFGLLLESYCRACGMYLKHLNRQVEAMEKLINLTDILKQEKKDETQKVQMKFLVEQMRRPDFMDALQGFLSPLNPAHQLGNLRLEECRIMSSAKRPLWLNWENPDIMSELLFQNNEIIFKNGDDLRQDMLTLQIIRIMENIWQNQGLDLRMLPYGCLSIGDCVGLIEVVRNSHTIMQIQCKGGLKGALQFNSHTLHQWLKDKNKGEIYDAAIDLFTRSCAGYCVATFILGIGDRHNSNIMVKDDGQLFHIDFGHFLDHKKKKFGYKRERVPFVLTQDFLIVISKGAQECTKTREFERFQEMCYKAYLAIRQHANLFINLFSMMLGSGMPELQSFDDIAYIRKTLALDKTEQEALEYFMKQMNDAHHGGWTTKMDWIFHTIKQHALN
Sequence of Phosphatidylinositol 4,5-bisphosphate 3-kinase catalytic subunit gamma isoform (P48736 whole entry, canonical isoform): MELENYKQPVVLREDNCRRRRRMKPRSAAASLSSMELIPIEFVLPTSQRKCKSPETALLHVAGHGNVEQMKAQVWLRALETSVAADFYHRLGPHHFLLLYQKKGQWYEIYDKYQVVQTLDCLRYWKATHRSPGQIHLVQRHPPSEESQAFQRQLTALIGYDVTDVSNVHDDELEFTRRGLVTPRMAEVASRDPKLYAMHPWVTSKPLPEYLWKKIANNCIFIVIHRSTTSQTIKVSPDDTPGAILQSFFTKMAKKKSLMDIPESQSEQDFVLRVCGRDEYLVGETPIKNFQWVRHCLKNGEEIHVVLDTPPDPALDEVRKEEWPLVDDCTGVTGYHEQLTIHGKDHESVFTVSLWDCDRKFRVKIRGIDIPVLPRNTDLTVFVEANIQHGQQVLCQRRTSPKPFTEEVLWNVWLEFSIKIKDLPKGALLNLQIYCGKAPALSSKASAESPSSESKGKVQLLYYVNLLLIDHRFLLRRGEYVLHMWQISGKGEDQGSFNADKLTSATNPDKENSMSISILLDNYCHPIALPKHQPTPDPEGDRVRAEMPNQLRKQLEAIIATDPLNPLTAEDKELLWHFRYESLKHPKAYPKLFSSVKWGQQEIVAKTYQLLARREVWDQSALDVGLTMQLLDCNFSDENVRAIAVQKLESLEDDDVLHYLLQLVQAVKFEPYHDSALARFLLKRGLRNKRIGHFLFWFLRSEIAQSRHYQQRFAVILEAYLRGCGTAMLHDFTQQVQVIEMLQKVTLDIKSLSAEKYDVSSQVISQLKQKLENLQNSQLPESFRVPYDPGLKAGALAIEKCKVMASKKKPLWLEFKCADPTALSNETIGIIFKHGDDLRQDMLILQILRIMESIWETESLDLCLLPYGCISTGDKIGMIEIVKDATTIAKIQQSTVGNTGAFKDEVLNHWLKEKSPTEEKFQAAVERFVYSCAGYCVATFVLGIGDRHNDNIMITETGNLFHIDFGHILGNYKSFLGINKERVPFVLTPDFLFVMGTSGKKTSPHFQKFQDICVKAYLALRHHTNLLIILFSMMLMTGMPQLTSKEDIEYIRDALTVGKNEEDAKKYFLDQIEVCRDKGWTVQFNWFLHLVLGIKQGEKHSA
Sequence of PI3-kinase p110-alpha/p85-alpha (P27986 whole entry): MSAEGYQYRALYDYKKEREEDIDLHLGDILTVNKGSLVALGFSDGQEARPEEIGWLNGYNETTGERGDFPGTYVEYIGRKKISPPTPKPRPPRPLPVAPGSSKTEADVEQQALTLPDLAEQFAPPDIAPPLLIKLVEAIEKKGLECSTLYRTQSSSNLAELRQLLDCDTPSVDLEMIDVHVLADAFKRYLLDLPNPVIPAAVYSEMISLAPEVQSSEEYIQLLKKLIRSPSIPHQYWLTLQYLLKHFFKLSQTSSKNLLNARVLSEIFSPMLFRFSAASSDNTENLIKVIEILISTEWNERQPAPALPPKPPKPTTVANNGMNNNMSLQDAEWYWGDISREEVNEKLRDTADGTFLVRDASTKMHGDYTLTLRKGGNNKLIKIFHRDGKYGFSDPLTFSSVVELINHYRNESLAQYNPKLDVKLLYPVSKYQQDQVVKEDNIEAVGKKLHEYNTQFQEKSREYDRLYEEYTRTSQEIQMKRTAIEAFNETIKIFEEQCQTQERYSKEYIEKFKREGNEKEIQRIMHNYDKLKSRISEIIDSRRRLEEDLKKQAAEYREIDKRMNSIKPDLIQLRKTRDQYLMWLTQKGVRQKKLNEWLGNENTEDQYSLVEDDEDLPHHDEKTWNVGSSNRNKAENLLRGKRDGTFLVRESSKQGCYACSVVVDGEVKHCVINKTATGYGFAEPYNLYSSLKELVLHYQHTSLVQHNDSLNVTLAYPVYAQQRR
Sequence of PI3-kinase p110-alpha/p85-alpha (P42336 whole entry): as the sequence (P42336 whole entry, canonical isoform) above

## CCCCS(=O)(=O)Nc1cc(-c2ccc3ncnc(NCCN(C)C)c3c2)cnc1OC
HCT-116 [1]
  Activity: 10.3%
MCF7
  IC50: 3240 nM
HCT-116 [2]
  Activity: 15.33%
HCT-116 [3]
  Activity: 10.99%
[4]
  IC50: 13.6 nM
HCT-116 [5]
  Activity: 13.02%
HCT-116 [6]
  viability at 1 µM: 85.5%
MRC5
  IC50: 18500 nM
HCT-116 [7]
  Activity: 11.11%
[8]
  inhibition: Active
MDA-MB-231
  IC50: 280 nM
HCT-116 [9]
  Activity: 2.51%
HCT-116 [10]
  Activity: Active
A549
  IC50: 1320 nM
HCT-116 [11]
  Activity: Active
HCT-116 [12]
  Activity: 10.2%
[13]
  inhibition: Active
[14]
  inhibition: Active
HCT-116 [15]
  viability at 4 µM: 83.3%
HCT-116 [16]
  viability at 2 µM: 84.7%
HCT-116 [17]
  Activity: Active
HCT-116 [18]
  Activity: 10.13%
SK-HEP1
  IC50: 280 nM
HCT-116 [19]
  Activity: 1.02%
HCT-116 [20]
  Activity: 20.53%
SNU-638
  IC50: 480 nM
[21]
  IC50: 117 nM
HCT-116 [22]
  Activity: 2.91%
HCT-116 [23]
  Activity: 4.6%
[24]
  inhibition: Dose-dependent effect
HCT-116 [25]
  Activity: Active
HCT-116 [26]
  Activity: 1.5%
HCT-116 [27]
  Activity: 54.1%
HCT-116 [28]
  Activity: 1.39%
HCT-116 [29]
  Activity: Active
HCT-116 [30]
  Activity: Active
